{"source": "patent US20180200279A1", "about": "“INHIBITION OF HSV-1-ASSOCIATED CORNEAL NEOVASCULARIZATION USING INHIBITORS OF CYCLIN-DEPENDENT KINASE 9” (XAVIER UNIVERSITY OF LOUISIANA, priority 2014, published 2018)", "key": {"[1]": {"test_system": "HSV-1 17syn+", "experiment": "Real-time PCR of HSV-1 DNA on ocular swabs of infected mice", "type": "in vivo, Balb/c mice", "settings": "day 25 post infection; 1% TFT, 0.01% flavopiridol, 0.1% DRB drops; n=10", "experimental": "SYBR Green semi-quantitative real-time PCR was performed on DNA samples eluted from swabs taken from mouse eyes on days 2, 4, 7, 9, 11, 14, 18 and 25 post infection with 5×10^5 PFU/eye HSV-1 17syn+ using primers specific for HSV-1 DNA polymerase.\nAll experimental procedures were performed in accordance with the ARVO Resolution for the Use of Animals in Ophthalmic and Vision Research and were approved by the Xavier University Animal Care and Use Committee. Female 20 g Balb/c mice were obtained from Charles River Laboratories. Mice were allowed to equilibrate to their surroundings for 2 weeks and then were anesthetized by intramuscular administration of xylazine (6.6 mg/kg of body weight) and ketamine (100 mg/kg of body weight). The corneas were mildly scarified in a 2×2 cross-hatch pattern and each cornea was inoculated with 5×10^5 PFU of strain HSV 17syn+. […] DNA was collected by swabbing the eyes with filter paper, and the eyes were examined with a slit-lamp on PI days 2, 4, 7, 9, 11, 14, 18 and 25. Average neovascularization/eye was scored using the formula A=(C×0.4×L×π)/2 where C=clock hours of neovascularization; 30° arc is 1 (360° circle with a total of 12); L is the length of the longest neovessel, and A is the area of neovascularization. Students scored (by eye) the animals on the days indicated in a masked fashion using the slit-lamp, and images representative of each group were taken. Clinical scores based on epiphora, inflammation and discharge were calculated where 0=no manifestations, +1=slight manifestations, +2=moderate manifestations, and +3=severe manifestations. […] Ex ovo chick embryo chorioallantoic membrane collagen angiogenesis assays were performed using methods as previously described (Deryugina E I and Quigley J P. Chapter 2. Chick embryo chorioallantoic membrane models to quantify angiogenesis induced by inflammatory and tumor cells or purified effector molecules. Methods Enzymol. 444:21-41. 2008). […]"}, "[2]": {"test_system": "HSV-1 17syn+ ocular infection", "experiment": "HSV-1 ocular infection mouse model, combined clinical score (epiphora, inflammation, discharge)", "type": "in vivo, Balb/c mice", "settings": "1% TFT, 0.01% flavopiridol, 0.1% DRB drops", "experimental": "The combined clinical score was determined based on epiphora (excess tearing), inflammation and discharge. […], +1=slight manifestations, +2=moderate manifestations, and +3=severe manifestations.\n(§1) All experimental procedures were performed in accordance with the ARVO Resolution for the Use of Animals in Ophthalmic and Vision Research and were approved by the Xavier University Animal Care and Use Committee. Female 20 g Balb/c mice were obtained from Charles River Laboratories. Mice were allowed to equilibrate to their surroundings for 2 weeks and then were anesthetized by intramuscular administration of xylazine (6.6 mg/kg of body weight) and ketamine (100 mg/kg of body weight). The corneas were mildly scarified in a 2×2 cross-hatch pattern and each cornea was inoculated with 5×10^5 PFU of strain HSV 17syn+. […] DNA was collected by swabbing the eyes with filter paper, and the eyes were examined with a slit-lamp on PI days 2, 4, 7, 9, 11, 14, 18 and 25. Average neovascularization/eye was scored using the formula A=(C×0.4×L×π)/2 where C=clock hours of neovascularization; 30° arc is 1 (360° circle with a total of 12); L is the length of the longest neovessel, and A is the area of neovascularization. Students scored (by eye) the animals on the days indicated in a masked fashion using the slit-lamp, and images representative of each group were taken. Clinical scores based on epiphora, inflammation and discharge were calculated where 0=no manifestations, +1=slight manifestations, +2=moderate manifestations, and +3=severe manifestations. Mice were sacrificed with CO2 on day 25 post-infection, and eyes were harvested, sectioned, stained with hematoxylin and eosin (H&E) for histological analysis based on peripheral neovascularization and leukocytic infiltration where 0=clear eyes, 0.5=either peripheral neovascularization or leukocytic infiltration, and 1=both peripheral neovascularization and leukocytic infiltration. Ex ovo chick embryo chorioallantoic membrane collagen angiogenesis assays were performed using methods as previously described (Deryugina E I and Quigley J P. Chapter 2. Chick embryo chorioallantoic membrane models to quantify angiogenesis induced by inflammatory and tumor cells or purified effector molecules. Methods Enzymol. 444:21-41. 2008). Briefly, fertilized embryos (Charles River Laboratories, Charleston, S.C.) were incubated at 37.5° C. for 3 days, removed from their shell using a Dremel tool and placed into a covered weighing boat for 7 further days of incubation. […] Four collagen onplants were added per egg on at least 3 separate eggs. After three additional days of incubation, images were taken of each plug using a mini-Vid camera (LW Scientific; Lawrenceville, Ga.) and quantified in a masked fashion based on the percentage of grids that were positive for newly formed blood vessels.\nFIG. 1B is the combined clinical score for the treatment groups based on epiphora (excess tearing), inflammation, and discharge."}, "[3]": {"test_system": "HSV-1 17syn+ ocular infection", "experiment": "HSV-1 ocular infection mouse model, H&E histology of eyes (leukocytic infiltration, peripheral neovascularization)", "type": "in vivo, Balb/c mice", "settings": "day 25 PI", "experimental": "Histological score (0-1) was calculated based on leukocytic infiltration and peripheral neovascularization of hematoxylin & eosin (H&E) stained slides of mouse eyes on day 25 PI.\nas §1\nTo confirm the results in FIGS. 1A and 1B, sections of one cornea from each mouse was sectioned, stained with H&E and analyzed for leukocytic infiltrate and peripheral neovascularization of the cornea."}, "[4]": {"experiment": "Ocular safety and tolerability of the formulation, mouse eyes", "type": "in vivo", "settings": "dose and frequency of the HSV-1 corneal neovascularization study", "experimental": "This was assessed with the dose and frequency that was used in the chemotherapeutic study of HSV-1 corneal neovascularization. FIG. 1A presents the results of slit-lamp examination (SLE) scores of the corneas of the four treatment groups beginning on post-inoculation day 2 and continuing to 25 days following infection."}, "[5]": {"test_system": "HUVEC", "experiment": "In vitro tubule formation assay", "type": "cell-based, human", "settings": "25 ng/mL bFGF and VEGF", "experimental": "The number of circular tubular structures formed by HUVEC under conditions of serum starvation followed by treatment with 25 ng/mL bFGF and VEGF and with 0-200 nM FP were quantitatively analyzed. Manual counting at low power fields was used to quantitate tubular structures and percentage of inhibition was expressed using VEGF control wells as 100%.\nGrowth factor-reduced Geltrex (Life Technologies, Grand Island, N.Y.) was thawed overnight on ice. Each well of 96-well plated was coated at […] with 50 μL Geltrex and incubated at 37° C. for 30 min. […] After 12-16 hours, tubule formation was assessed with an inverted photomicroscope and the images were photographed using Olympus U-RLF-T microscope. Manual counting at low power fields was used to quantitate tubular structures and percentage of inhibition was expressed using VEGF control wells as 100%. Results represent one triplicate repeat of three independent experiments with similar results.\nFollowing migration from the vessel of origin and invasion through the ECM, ECs form capillary tubules. […] The number of circular nodes surrounded by tubular structures was quantitatively analyzed in a masked fashion."}}}
{"smiles": "CN1CC[C@H](c2c(O)cc(O)c3c(=O)cc(-c4ccccc4Cl)oc23)[C@H](O)C1", "note": "[flavopiridol]", "values": [{"measurement": "quantitative real-time PCR score (HSV-1 DNA) on ocular swabs", "setting": "[1]", "value": "0.039±0.176"}, {"measurement": "combined clinical score (epiphora, inflammation, discharge; 0 to +3)", "setting": "[2]; day 11", "value": "0.169±0.248"}, {"measurement": "combined clinical score (epiphora, inflammation, discharge; 0 to +3)", "setting": "[2]; day 25", "value": "0.039±0.177"}, {"measurement": "mouse eyes exhibiting corneal neovascularization", "setting": "[3]; H&E sections", "value": 0, "unit": "%"}, {"measurement": "mouse eyes exhibiting leukocytic infiltration", "setting": "[3]; H&E sections", "value": 0, "unit": "%"}, {"measurement": "histological score (scale 0-1) for leukocytic infiltrate and peripheral neovascularization", "setting": "[3]; H&E stained corneal sections", "value": "0.125±0.125"}, {"measurement": "safety and tolerability of the formulation in the eye", "setting": "[4]", "value": "safe and well-tolerated"}, {"measurement": "tubular structures, VEGF control wells as 100%", "setting": "[5]; 50 nM flavopiridol, not statistically different from control", "value": "114.7±7.17"}, {"measurement": "tubular structures, VEGF control wells as 100%", "setting": "[5]; 100 nM flavopiridol, not statistically different from control", "value": "97.67±5.36"}, {"measurement": "tubular structures, VEGF control wells as 100%", "setting": "[5]; 150 nM flavopiridol, significantly reduced", "value": "55.33±9.70"}]}
